We go through two compounds from paper PMC6669322, “Small Molecule Binding to Alzheimer Risk Factor CD33 Promotes Aβ Phagocytosis” (iScience, 2019).

Experiment [1] has as its system differentiated THP-1 cells. In words: THP-1 phagocytosis assay (pHrodo E. coli BioParticles), wild-type cells. It counts as cell-based, human. The note with it: co-treatment, all treatment groups, in words. The text has this:
(§1) Having shown that P22 binds specifically to the sialic acid-binding site of this domain we now have a chemical tool to answer the question of whether the sialic acid-binding site is the appropriate target for small molecule ligands that might promote Aβ uptake. Siglecs preferentially recognize multivalent presentation of their ligands ([Rillahan et al., 2014], [Büll et al., 2016]), and for this reason we conjugated the biotinylated form of P22 to microparticles labeled with both FITC and streptavidin (P22 microparticles) (see Transparent Methods). More than 60% CD33-transfected BV2 cells were positive for P22 microparticles compared with only 30% cells that were only incubated with control particles (unconjugated to P22) (Figure 4A). […]
(§2) Figure 4 Effect of P22 on Phagocytosis The cells were treated with P22 conjugated to microparticles labeled with both streptavidin and fluorescein isothiocyanate (FITC), or with microparticles without P22 conjugated as control. […] (C) Quantification of phagocytic differentiated human THP-1 cells after incubation with P22 monomer, P22 conjugated microparticles, or microparticles without P22 conjugation. […]
THP-1 cells (control and CD33KO) were differentiated in growth media (RPMI 1640, 10% FCS) supplemented with 100 ng/mL PMA for 3 days. […] Differentiated cells were then lifted, counted and 75,000 cells/well were plated in a 96 well plate. […]

Experiment [2] deals with human CD33-transfected BV2 cells. In words: Aβ42 phagocytosis assay (Aβ42 pHrodo uptake). The note with it: cells pre-treated with millimolar concentration of the ligand, in words. It counts as cell-based, murine.
Text: as §1, with “4A). Although some P22 microparticles also bind to non-transfected cells, the difference remains significant for the cells transfected with CD33. This led us to believe that the compound bound preferentially to CD33 (Figure 4A).” for “4A).”
as §2

For another experiment, the system named is CD33. Also on record: method as in Blixt et al., 2003. The note with it: order of magnitude in words; ref Blixt et al., 2003; cited from earlier work.

For `C=C1[C@@H](C)[C@H]2[C@H](Cc3ccccc3)NC(=O)[C@]23[C@H](OC(C)=O)/C=C/[C@@](C)(O)C(=O)[C@@H](C)C/C=C/[C@H]3[C@@H]1O` [cytochalasin D], in experiment [1], the “effect of co-treatment on phagocytosis” value is “blocked phagocytosis”.
For the compound `CC(=O)N[C@H]1[C@H]([C@H](O)[C@H](O)CO)O[C@@](O[C@H]2[C@@H](O)[C@@H](CO)O[C@@H](O[C@H]3[C@H](O)[C@@H](O)C(O)O[C@@H]3CO)[C@@H]2O)(C(=O)O)C[C@@H]1O` (stereo partly drawn) [3′-sialyllactose], the effect on phagocytosis entry in experiment [2] is “no difference”. Also, the “affinity for CD33” value in the experiment with CD33 is reported as “millimolar”.
